Reference: ChEMBL document CHEMBL1159353, “New stigmastane sterols from Ajuga salicifolia” (J Nat Prod, 2003)
In brackets after ≈: the same amount, converted by molar mass. Activity calls are given as the source filed them. The rule behind the calls is not given here.

Experiments:
[1] = tested on: Jurkat; experiment: Cytotoxicity against human Jurkat cells at 20 ug/ml; type: functional, cell-based
[2] = tested on: KB; experiment: Cytotoxicity against human KB cells; type: functional, cell-based

`CC[C@H]1C[C@H]([C@@H](C)C2[C@@H](O)C[C@H]3C4=CC[C@H]5C[C@@H](O[C@@H]6O[C@H](CO)[C@@H](O)[C@H](O)[C@H]6O[C@@H]6O[C@H](CO)[C@@H](O)[C@H](O)[C@H]6O)CC[C@]5(C)[C@H]4CC[C@]23C)O[C@]1(C)CO[C@@H]1O[C@H](CO)[C@@H](O)[C@H](O)[C@H]1O[C@@H]1O[C@H](CO)[C@@H](O)[C@H](O)[C@H]1O` (stereo partly specified) was tested, and the Activity [1] was “inactive”.

With `CC[C@H]1[C@H](O)[C@H]([C@@H](C)[C@@]2(O)[C@@H](O)C[C@H]3C4=CC[C@H]5C[C@@H](O[C@@H]6O[C@H](COC(C)=O)[C@@H](O)[C@H](O)[C@H]6O)CC[C@]5(C)[C@H]4CC[C@@]32C)O[C@]1(C)COC(C)=O` the Activity [1] was “inactive”.

`CC[C@H]1[C@H](O)[C@H]([C@@H](CO)[C@@]2(O)[C@@H](O)C[C@H]3C4=CC[C@H]5C[C@@H](O)CC[C@]5(C)[C@H]4CC[C@@]32C)O[C@]1(C)CO` [AJUGASALICIGENIN] was tested, and the Activity [1] was “inactive” and the IC50 [2] was 1 µg/mL (≈ 1.97 µM).

In the case of `CC[C@H]1[C@H](O)[C@H]([C@@H](CO)[C@@]2(O)[C@@H](O)C[C@H]3C4=CC[C@H]5C[C@@H](O[C@@H]6O[C@H](CO)[C@@H](O)[C@H](O)[C@H]6O)CC[C@]5(C)[C@H]4CC[C@@]32C)O[C@]1(C)CO` [AJUGASALICIOSIDE F], the Activity [1] is reported as “inactive” and the IC50 [2] is reported as 13 µg/mL (≈ 19.4 µM).
